Measurements: patent US20130295100A1, “MARKERS FOR ACUTE KIDNEY INJURY AND USES THEREOF” (OSPEDALE SAN RAFFAELE S.R.L., priority 2010, published 2013)

Columns and labels:
[1] = test system: ouabain antiserum; conditions: radioimmunoassay for endogenous ouabain, as previously described; cited from earlier work
[2] = test system: glomerular podocytes (nephrin, synaptopodin expression); test: Western blot of cultured rat glomerular podocytes incubated with ouabain; assay type: cell-based; conditions: 10^−9 M ouabain for 4 days, vs control group
Protocol: Kidneys were taken from 7-10 day-old rats and glomerular podocytes were isolated and cultured as described.^30 Cell characterization was performed using markers of podocytes (nephrin, podocin, synaptopodin), epithelial (cytokeratin), smooth muscle (a-SMC) and endothelial cells (CD31). Podocytes were incubated in the absence or presence of 10^−9 M ouabain for 4 days and analyzed by Western blotting.
(§1) Samples were analyzed by Western blotting using specific antibodies against podocyte markers, such as nephrin (Santa Cruz Biotechnology), podocin (Sigma-Aldrich), synaptopodin (Progen Biotechnik), ZO-1 (Invitrogen) as described in Ferrandi M, et al (J Mol Med 2010; 88:203-217).^30 Actin (Sigma-Aldrich) was used for normalization.

[3] = test system: normotensive Sprague-Dawley rats; test: Chronic subcutaneous ouabain infusion in rats (OHR): blood pressure and renal function; assay type: in vivo, rat; conditions: 8 weeks
Protocol: Care and husbandry of rats complied with the European Directives No. 86/609 and with the Italian Law (DL116, Jan. 27, 1992). The authorization for animal use in Prassis Sigma-Tau laboratories was obtained from the Italian Health Authority. Ouabain hypertensive rats (OHR) were obtained by subcutaneous ouabain infusion (Sprague-Dawley rats, 15 μg/kg/day ouabain from Sigma-Aldrich, n=7) with osmotic mini-pumps for 8 weeks as described.^1,2 Normotensive control rats received sterile saline (n=7). Systolic blood pressure and heart rate were recorded weekly in conscious rats by tail-cuff plethysmography.
Rats were housed in single metabolic cages and 24 h-urine samples were collected and analyzed for total protein and creatinine excretion (kits from Sentinel Diagnostics, Milan, Italy) as described in Doi M, et al.^29 At sacrifice, rat plasma was collected for creatinine determination.

[4] = test system: nephrin, synaptopodin (podocyte proteins); test: Western blot of renal microsomes from ouabain-infused rats; assay type: in vivo, rat; conditions: OHR vs control rats
Protocol: Renal microsomes were prepared from ouabain-infused rats and saline controls as described^30 and analyzed by Western blotting.
as §1

[5] = test system: nephrin, synaptopodin (podocyte proteins); test: Immunofluorescence of podocyte proteins in kidney sections of ouabain-infused rats; assay type: in vivo, rat; conditions: OHR vs control rats
Protocol: Immunofluorescence was performed on rat kidney sections by using anti-nephrin and anti-synaptopodin antibodies as described.^30

[6] = test system: hypertension in patients; conditions: reference 34; cited from earlier work
[7] = ouabain 15 μg/kg/day s.c., OHR vs saline controls, p<0.05

C[C@H]1O[C@@H](O[C@H]2[C@@H](O)C[C@H](O[C@H]3[C@@H](O)C[C@H](O[C@H]4CC[C@@]5(C)[C@H](CC[C@@H]6[C@@H]5C[C@@H](O)[C@]5(C)[C@@H](C7=CC(=O)OC7)CC[C@]65O)C4)O[C@@H]3C)O[C@@H]2C)C[C@H](O)[C@@H]1O [digoxin]
cross-reactivity of ouabain antiserum [1]: approximately 0.42%

C[C@@H]1O[C@@H](O[C@H]2C[C@@H](O)[C@]3(CO)[C@H]4[C@H](O)C[C@]5(C)[C@@H](C6=CC(=O)OC6)CC[C@]5(O)[C@@H]4CC[C@]3(O)C2)[C@H](O)[C@H](O)[C@H]1O [ouabain]
nephrin expression in podocytes, normalized for actin [2]: decreased expression | systolic blood pressure (SBP) ([3]; ouabain 15 μg/kg/day s.c. by osmotic mini-pump, OHR vs saline controls, n=7): significantly raised | urinary creatinine ([3]; ouabain 15 μg/kg/day s.c., 24 h urine, OHR): 33.8±1.4 mg/24 h | reduction of creatinine clearance vs controls ([3]; ouabain 15 μg/kg/day s.c., OHR vs saline controls, p<0.02): −18% | increase of plasma creatinine vs controls [3, 7]: +14% | urinary protein excretion, change vs controls [3, 7]: +54% | nephrin expression in renal microsomes, normalized for actin [4]: reduced expression | synaptopodin expression in renal microsomes ([4]; data not shown): but not of synaptopodin | synaptopodin staining in kidney sections ([5]; data not shown): but not for synaptopodin | nephrin staining in kidney sections ([5]; three rats per group): significant reduction of staining

C[C@]12CC[C@H](O)C[C@H]1CC[C@@H]1[C@@H]2CC[C@]2(C)[C@@](O)(c3ccoc3)CC[C@]12O [rostafuroxin]
antihypertensive activity in patients [6]: has been shown to have antihypertensive activity

CC(=O)S[C@@H]1CC2=CC(=O)CC[C@]2(C)[C@H]2CC[C@@]3(C)[C@@H](CC[C@@]34CCC(=O)O4)[C@H]12 [spironolactone]
cross-reactivity of ouabain antiserum [1]: < 0.01%
